Columns and labels:
[1] = biological target: T1, K-Ras G12C mutant protein (Homo sapiens, UniProt P01116, G12C); assay: K-Ras G12C HTRF assay; assay type: biochemical; conditions: Table 1; unit or assay not given; several values in one cell
T1 construct: K-Ras G12C (residues 2-188) and SOS1 (residues 564-1049) had N-terminal 6-His; made in house; host or cells: E. coli
Protocol: In the above definition of R^2, the electrophilic moiety that is capable of forming a covalent bond with a cysteine residue is determined via K-Ras G12C-alkylation studies and Homogeneous Time Resolved Fluorescence (HTRF) assays. The G12C mutation of the K-Ras gene is a change in amino acid from glycine to cysteine at the 12th amino acid. The compounds according to the present disclosure were discovered using the HTRF assay and the K-Ras G12C-alkylation assay, as further detailed elsewhere herein below, and then NMR spectroscopy was later used to validate the specificity with which the molecule was attaching to G12C.

K-Ras G12C [2] = biological target: T2, K-Ras G12C (Homo sapiens, UniProt P01116, G12C); assay: K-Ras G12C, SOS1, Raf RBD HTRF assay for inhibition of GTP exchange; assay type: biochemical; set-up: K-Ras G12C (residues 2-188) and SOS1 (residues 564-1049) had N-terminal 6-His; made in house; host or cells: E. coli; conditions: 18 hours preincubation with K-Ras G12C at room temperature; SOS1-mediated GTP exchange
Summary of the method: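 After 18 h at room temperature with compound, SOS1 (1.25 nM final) started exchange to GTP (150 μM final). C-Raf RBD, Tb-anti-FLAG and D2-anti-his (50, 1 and 12.5 nM) were then added. The 665/615 nm HTRF ratio was read after 2 h; buffer was HEPES/NaCl, 1 mM MgCl2, BSA, Tween-20 and DTT.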
Target sequence in this assay (P01116 2-188 isoform P01116-2 G12C): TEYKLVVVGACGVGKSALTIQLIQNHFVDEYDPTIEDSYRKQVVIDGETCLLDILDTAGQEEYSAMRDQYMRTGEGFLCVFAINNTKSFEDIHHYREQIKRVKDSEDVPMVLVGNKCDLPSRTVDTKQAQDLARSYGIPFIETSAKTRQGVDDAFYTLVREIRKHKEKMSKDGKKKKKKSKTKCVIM

K-Ras G12C [3] = biological target: T2, K-Ras G12C; assay: Western blot assay for in cell alkylation of K-Ras G12C (HCC1171 cells); assay type: cell-based; set-up: endogenous in cells; host or cells: HCC1171; conditions: 18 hours at 37° C., 7 point dose response
Summary of the method: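 HCC1171 cells exposed to compounds for 18 h at 37° C, lysed, and analysed by SDS-PAGE/western blot with anti-K-Ras antibody and fluorescent secondary. Alkylated K-Ras separated by band shift; % alkylation = FI(alkylated)/(FI(alkylated)+FI(unalkylated))×100, IC50 from 7-point dose response.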
Target sequence in this assay (P01116 1-188 isoform P01116-2 G12C): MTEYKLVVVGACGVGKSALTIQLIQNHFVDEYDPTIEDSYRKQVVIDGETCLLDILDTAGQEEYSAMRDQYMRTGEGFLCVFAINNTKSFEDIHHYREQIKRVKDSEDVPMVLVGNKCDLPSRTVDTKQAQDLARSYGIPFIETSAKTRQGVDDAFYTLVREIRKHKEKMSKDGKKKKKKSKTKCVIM

T1 sequence (P01116 2-188 isoform P01116-2 G12C): as the sequence (P01116 2-188 isoform P01116-2 G12C) above

Compound	IC50 [1] [nM]	IC50 (K-Ras G12C [2]) [nM]	EC50 (K-Ras G12C [3]) [nM]
C=CC(=O)N1CCN(c2nc(OCC3CCCN3C)nc3c2CC(C)C(c2c(C)ccc4[nH]ncc24)C3)CC1 (stereo not shown) [Example 18, 1-(4-(6-methyl-7-(5-methyl-1H-indazol-4-yl)-2-((1-methylpyrrolidin-2-yl)methoxy)-5,6,7,8-tetrahydroquinazolin-4-yl)piperazin-1-yl)prop-2-en-1-one]	24		
C=CC(=O)Oc1cc(C2CCc3c(nc(OCC4CCCN4C)nc3N3CCN(C(=O)C=C)CC3)C2)c2ccccc2c1 (stereo not shown) [Example 50, 4-(4-(4-acryloylpiperazin-1-yl)-2-((1-methylpyrrolidin-2-yl)methoxy)-5,6,7,8-tetrahydroquinazolin-7-yl)naphthalen-2-yl acrylate]	160		
C=CC(=O)N1CCN(c2nc(OCC3CCCN3C)nc3c2CCCC3)CC1 (stereo not shown) [Example 45, 1-(4-(2-((1-methylpyrrolidin-2-yl)methoxy)-5,6,7,8-tetrahydroquinazolin-4-yl)piperazin-1-yl)prop-2-en-1-one]	> 50000		
C=CC(=O)Oc1cc(C2CCc3c(nc(OCC4CCCN4C)nc3N3CCN(C(=O)C=C)C(CC#N)C3)C2)c2ccccc2c1 (stereo not shown) [Example 59, 4-(4-(4-acryloyl-3-(cyanomethyl)piperazin-1-yl)-2-((1-methylpyrrolidin-2-yl)methoxy)-5,6,7,8-tetrahydroquinazolin-7-yl)naphthalen-2-yl acrylate]	250		
C=CC(=O)N1CCN(c2ncnc3c2CC(C)C(c2nc(N)cc(C)c2C(F)(F)F)C3)CC1 (single isomer, unassigned) [Example 1, 1-(4-(7-(6-amino-4-methyl-3-(trifluoromethyl)pyridin-2-yl)-6-methyl-5,6,7,8-tetrahydroquinazolin-4-yl)piperazin-1-yl)prop-2-en-1-one]	> 50000		
C=CC(=O)N1CCC(C#N)(c2nc(OCC3CCCN3C)nc3c2CCC(c2cc(O)cc4ccccc24)C3)CC1 (stereo not shown) [Example 7, 1-acryloyl-4-(7-(3-hydroxynaphthalen-1-yl)-2-((1-methylpyrrolidin-2-yl)methoxy)-5,6,7,8-tetrahydroquinazolin-4-yl)piperidine-4-carbonitrile]	87		
C=CC(=O)N1CCN(c2nc(OCCC3CCCN3C)nc3c2CCC(c2cc(O)cc4ccccc24)C3)CC1 (stereo not shown) [Example 52, 1-(4-(7-(3-hydroxynaphthalen-1-yl)-2-(2-(1-methylpyrrolidin-2-yl)ethoxy)-5,6,7,8-tetrahydroquinazolin-4-yl)piperazin-1-yl)prop-2-en-1-one]	51		
C=CC(=O)N1CC(C)N(c2nc(OCC3CCCN3C)nc3c2CCC(c2cc(O)cc4ccccc24)C3)C(C)C1 (stereo not shown) [Example 56, 1-(4-(7-(3-hydroxynaphthalen-1-yl)-2-((1-methylpyrrolidin-2-yl)methoxy)-5,6,7,8-tetrahydroquinazolin-4-yl)-3,5-dimethylpiperazin-1-yl)prop-2-en-1-one]	73		
C=CC(=O)N1CCN(c2ncnc3c2CCC(c2cc(O)cc4ccccc24)C3)CC1 (stereo not shown) [Example 43, 1-[4-[7-(3-hydroxy-1-naphthyl)-5,6,7,8-tetrahydroquinazolin-4-yl]piperazin-1-yl]prop-2-en-1-one]	200	200	
C=CC(=O)N1CCN(c2nc(OCc3cn(C)cn3)nc3c2CCC(c2cc(O)cc4ccccc24)C3)C(C)C1 (stereo not shown) [Example 54, 1-(4-(7-(3-hydroxynaphthalen-1-yl)-2-((1-methyl-1H-imidazol-4-yl)methoxy)-5,6,7,8-tetrahydroquinazolin-4-yl)-3-methylpiperazin-1-yl)prop-2-en-1-one]	470		
C=CC(=O)N1CCN(c2nc(OCC3CCCN3C)nc3c2CCC2(CCCCC2)C3)CC1 (stereo not shown) [Example 25, 1-(4-(2′-((1-methylpyrrolidin-2-yl)methoxy)-5′,8′-dihydro-6′H-spiro[cyclohexane-1,7′-quinazolin]-4′-yl)piperazin-1-yl)prop-2-en-1-one]	5400		
CN1CCCC1COc1nc2c(c(N3CCN(C(=O)/C=C/CNC45CC(C4)C5)C(CC#N)C3)n1)CCC(c1cccc3ccccc13)C2 (stereo not shown) [Example 48, (E)-2-(1-(4-(bicyclo[1.1.1]pentan-1-ylamino)but-2-enoyl)-4-(2-((1-methylpyrrolidin-2-yl)methoxy)-7-(naphthalen-1-yl)-5,6,7,8-tetrahydroquinazolin-4-yl)piperazin-2-yl)acetonitrile]	11		
C=CC(=O)N1CCN(c2nc(OCCCN3CCOCC3)nc3c2CCC(c2cc(O)cc4ccccc24)C3)[C@@H](C)C1 (stereo partly drawn) [Example 53a, 1-((3S)-4-(7-(3-hydroxynaphthalen-1-yl)-2-(3-morpholinopropoxy)-5,6,7,8-tetrahydroquinazolin-4-yl)-3-methylpiperazin-1-yl)prop-2-en-1-one]		22	230
C=CC(=O)N1CCN(c2ncnc3c2CC[C@H](c2c(F)c(N)cc(C)c2C(F)(F)F)C3)CC1 (single isomer, unassigned) [Example 27a]		89	340
C=CC(=O)N1CCN(c2ncnc3c2C[C@H](C)[C@@H](c2c(C)ccc4[nH]ncc24)C3)CC1 (single isomer, unassigned) [Example 15b]		8600	30000
COc1ccc(CN(Cc2ccc(OC)cc2)c2cc(C)c(I)c(C3Cc4nc(OCC5CCCN5C)nc(N5CCN(C(=O)OC(C)(C)C)CC5C)c4CC3C)c2F)cc1 (stereo not shown) [Example 14, tert-butyl 4-(7-(3-(bis(4-methoxybenzyl)amino)-2-fluoro-6-iodo-5-methylphenyl)-6-methyl-2-((1-methylpyrrolidin-2-yl)methoxy)-5,6,7,8-tetrahydroquinazolin-4-yl)-3-methylpiperazine-1-carboxylate]	> 50000		
COc1ccc(CN(Cc2ccc(OC)cc2)c2cc(C)c(I)c([C@H]3Cc4nc(OC[C@@H]5CCCN5C)nc(N5CCN(C(=O)OC(C)(C)C)C[C@@H]5C)c4C[C@@H]3C)c2F)cc1 (single isomer, unassigned) [Example 14b]		> 50000	1000
C=CC(=O)N1CCN(c2nc(OCC[C@@H]3CCCN3C)nc3c2CCC(c2cc(O)cc4ccccc24)C3)CC1 (stereo partly drawn) [Example 52a, 1-(4-(7-(3-hydroxynaphthalen-1-yl)-2-(2-((S)-1-methylpyrrolidin-2-yl)ethoxy)-5,6,7,8-tetrahydroquinazolin-4-yl)piperazin-1-yl)prop-2-en-1-one]		51	990
C=CC(=O)N1CCN(c2nc(OCCCN3CCOCC3)nc3c2CCC(c2cc(O)cc4ccccc24)C3)C(C)C1 (stereo not shown) [Example 53, 1-(4-(7-(3-hydroxynaphthalen-1-yl)-2-(3-morpholinopropoxy)-5,6,7,8-tetrahydroquinazolin-4-yl)-3-methylpiperazin-1-yl)prop-2-en-1-one]	22		
C=CC(=O)N1CCN(c2nc(OC[C@@H]3COC(=O)N3C)nc3c2CC[C@H](c2cc(O)cc4ccccc24)C3)[C@@H](C)C1 (single isomer, unassigned) [Example 57c]		53	830
C#CC[C@H]1CN(c2nc(OC[C@@H]3CCCN3C)nc3c2C[C@@H](C)[C@H](c2cccc4c2CCC4)C3)CCN1C(=O)C=C (single isomer, unassigned) [Example 40a]		< 10	100
C=CC(=O)N1CCN(c2nc(OCC3CCC(=O)N3)nc3c2CCC(c2cc(O)cc4ccccc24)C3)C(C)C1 (stereo not shown) [Example 55, 5-(((4-(4-acryloyl-2-methylpiperazin-1-yl)-7-(3-hydroxynaphthalen-1-yl)-5,6,7,8-tetrahydroquinazolin-2-yl)oxy)methyl)pyrrolidin-2-one]	1400		
C=CC(=O)N1CCN(c2nc(OCC3CCCN3C)nc3c2CCC(c2cc(O)cc4ccccc24)C3)CC1 (stereo not shown) [Example 49, 1-(4-(7-(3-hydroxynaphthalen-1-yl)-2-((1-methylpyrrolidin-2-yl)methoxy)-5,6,7,8-tetrahydroquinazolin-4-yl)piperazin-1-yl)prop-2-en-1-one]	23		
C=CC(=O)N1CCN(c2nc(OC[C@@H]3CCCN3C)nc3c2CC[C@@H](c2cc(O)cc4ccccc24)C3)C[C@H]1CC#N (single isomer, unassigned) [Example 58e]		29	110
CNC/C=C/C(=O)N1CCN(c2ncnc3c2C[C@@H](C)[C@H](c2c(C)ccc4[nH]ncc24)C3)CC1 (single isomer, unassigned) [Example 19a]		930	12000
C=CC(=O)N1CCN(c2nc(OC[C@@H]3CCCN3C)nc3c2CCC2(CCCCC2)C3)CC1 [Example 25a, (S)-1-(4-(2′-((1-methylpyrrolidin-2-yl)methoxy)-5′,8′-dihydro-6′H-spiro[cyclohexane-1,7′-quinazolin]-4′-yl)piperazin-1-yl)prop-2-en-1-one]		5400	1000

— US11760744B2, “Fused ring compounds” (Genentech, Inc., priority 2018, dated 2023)
